In ChEMBL document CHEMBL1141535, “Benzothiazole based inhibitors of p38alpha MAP kinase” (Bioorg Med Chem Lett, 2008):
Values belong to the compound of their own block, whether it stands above or below them.

Tests used:
PBMC = assay: Inhibition of LPS-induced TNFalpha production in human PBMC; format: functional, cell-based
[1] = molecular target: Mitogen-activated protein kinase 14 (Homo sapiens, UniProt Q16539); assay: Inhibition of p38alpha
[2] = molecular target: Fibroblast growth factor receptor 1 (Homo sapiens) (UniProt P11362); assay: Inhibition of FGFR1 at 10 uM
[3] = molecular target: Epidermal growth factor receptor (Homo sapiens) (UniProt P00533); assay: Inhibition of EGFR at 10 uM
[4] = molecular target: Tyrosine-protein kinase Lyn (Homo sapiens) (UniProt P07948); assay: Inhibition of Lyn A at 10 uM
[5] = molecular target: Protein kinase C beta type (Homo sapiens) (UniProt P05771); assay: Inhibition of PKC-beta-2 at 10 uM
[6] = molecular target: MAP kinase-activated protein kinase 5 (Homo sapiens) (UniProt Q8IW41); assay: Inhibition of MAPKAP-K5 at 10 uM
[7] = molecular target: Tyrosine-protein kinase CSK (Homo sapiens) (UniProt P41240); assay: Inhibition of Csk at 10 uM
[8] = molecular target: Protein kinase C gamma type (Homo sapiens) (UniProt P05129); assay: Inhibition of PKCgamma at 10 uM
[9] = molecular target: Tyrosine-protein kinase BTK (Homo sapiens) (UniProt Q06187); assay: Inhibition of Btk at 10 uM
[10] = Inhibition of PKA at 10 uM
[11] = AUC in Sprague-Dawley rat at 5 mg/kg, po; format: ADME, organism-based; set-up: dose 5 mg/kg, route oral; details: plasma
[12] = molecular target: Platelet-derived growth factor receptor beta (Homo sapiens) (UniProt P09619); assay: Inhibition of PDGFRbeta at 10 uM
[13] = molecular target: Tyrosine-protein kinase Fes/Fps (Homo sapiens) (UniProt P07332); assay: Inhibition of FES at 10 uM
[14] = molecular target: Tyrosine-protein kinase Blk (Homo sapiens) (UniProt P51451); assay: Inhibition of Blk at 10 uM
[15] = molecular target: Tyrosine-protein kinase Fgr (Homo sapiens) (UniProt P09769); assay: Inhibition of Fgr at 10 uM
[16] = Bioavailability in Sprague-Dawley rat at 5 mg/kg, po; format: ADME, organism-based; details: in vivo
[17] = molecular target: Protein kinase C alpha type (Homo sapiens) (UniProt P17252); assay: Inhibition of PKCalpha at 10 uM
[18] = molecular target: Interleukin-1 receptor-associated kinase 4 (Homo sapiens) (UniProt Q9NWZ3); assay: Inhibition of IRAK4 at 10 uM
[19] = molecular target: Ribosomal protein S6 kinase alpha-3 (Homo sapiens) (UniProt P51812); assay: Inhibition of RSK2 at 10 uM
[20] = Clearance in Sprague-Dawley rat at 2 mg/kg, iv; format: ADME, organism-based; set-up: dose 2 mg/kg, route intravenous; details: in vivo
[21] = molecular target: Serine/threonine-protein kinase Chk2 (Homo sapiens) (UniProt O96017); assay: Inhibition of CHK2 at 10 uM
[22] = molecular target: Fibroblast growth factor receptor 3 (Homo sapiens) (UniProt P22607); assay: Inhibition of FGFR3 at 10 uM
[23] = molecular target: Protein kinase C beta type (Homo sapiens) (UniProt P05771); assay: Inhibition of PKCbeta1 at 10 uM
[24] = molecular target: Tyrosine-protein kinase Yes (Homo sapiens) (UniProt P07947); assay: Inhibition of Yes at 10 uM
[25] = molecular target: Protein-tyrosine kinase 6 (Homo sapiens) (UniProt Q13882); assay: Inhibition of Brk at 10 uM
[26] = molecular target: Tyrosine-protein kinase ABL1 (Homo sapiens) (UniProt P00519); assay: Inhibition of Abl at 10 uM
[27] = molecular target: RAC-gamma serine/threonine-protein kinase (Homo sapiens) (UniProt Q9Y243); assay: Inhibition of Atk3 at 10 uM
[28] = molecular target: Fibroblast growth factor receptor 2 (Homo sapiens) (UniProt P21802); assay: Inhibition of FGFR2 at 10 uM
[29] = molecular target: Serine/threonine-protein kinase Chk1 (Homo sapiens) (UniProt O14757); assay: Inhibition of CHK1 at 10 uM
[30] = molecular target: Tyrosine-protein kinase Lyn (Homo sapiens) (UniProt P07948); assay: Inhibition of Lyn B at 10 uM
[31] = molecular target: RAC-beta serine/threonine-protein kinase (Homo sapiens) (UniProt P31751); assay: Inhibition of Atk2 at 10 uM
[32] = molecular target: Mitogen-activated protein kinase 1 (Homo sapiens) (UniProt P28482); assay: Inhibition of ERK2 at 10 uM
[33] = molecular target: RAC-alpha serine/threonine-protein kinase (Homo sapiens) (UniProt P31749); assay: Inhibition of Atk1 at 10 uM
[34] = molecular target: Megakaryocyte-associated tyrosine-protein kinase (Homo sapiens) (UniProt P42679); assay: Inhibition of Hyl at 10 uM
[35] = molecular target: Casein kinase II subunit alpha (Homo sapiens) (UniProt P68400); assay: Inhibition of CK2-alpha-1 at 10 uM
[36] = molecular target: Ephrin type-B receptor 4 (Homo sapiens) (UniProt P54760); assay: Inhibition of EphB4 at 10 uM
[37] = molecular target: Calcium/calmodulin-dependent protein kinase type II subunit alpha (Homo sapiens) (UniProt Q9UQM7); assay: Inhibition of CaMK2-alpha at 10 uM
[38] = molecular target: Protein kinase C delta type (Homo sapiens) (UniProt Q05655); assay: Inhibition of PKCdelta at 10 uM
[39] = molecular target: Tyrosine-protein kinase Fyn (Homo sapiens) (UniProt P06241); assay: Inhibition of Fyn at 10 uM
[40] = molecular target: Glycogen synthase kinase-3 alpha (Homo sapiens) (UniProt P49840); assay: Inhibition of GSK3-alpha at 10 uM
[41] = molecular target: MAP kinase-activated protein kinase 2 (Homo sapiens) (UniProt P49137); assay: Inhibition of MAPKAP-K2 at 10 uM
[42] = molecular target: Glycogen synthase kinase-3 beta (Homo sapiens) (UniProt P49841); assay: Inhibition of GSK3-beta at 10 uM
[43] = molecular target: Receptor-type tyrosine-protein kinase FLT3 (Homo sapiens) (UniProt P36888); assay: Inhibition of Flt3 at 10 uM
[44] = molecular target: Ephrin type-A receptor 3 (Homo sapiens) (UniProt P29320); assay: Inhibition of EphA3 at 10 uM
[45] = Half life in Sprague-Dawley rat at 2 mg/kg, iv; format: ADME, organism-based; set-up: dose 2 mg/kg, route intravenous; details: in vivo
[46] = molecular target: Tyrosine-protein kinase Lck (Homo sapiens) (UniProt P06239); assay: Inhibition of Lck at 10 uM
[47] = molecular target: MAP kinase-activated protein kinase 3 (Homo sapiens) (UniProt Q16644); assay: Inhibition of MAPKAP-K3 at 10 uM
[48] = molecular target: Cytoplasmic tyrosine-protein kinase BMX (Homo sapiens) (UniProt P51813); assay: Inhibition of Bmx at 10 uM
[49] = molecular target: Hepatocyte growth factor receptor (Homo sapiens) (UniProt P08581); assay: Inhibition of cMET at 10 uM
[50] = molecular target: Phosphorylase b kinase gamma catalytic chain, liver/testis isoform (Homo sapiens) (UniProt P15735); assay: Inhibition of PHKG2 at 10 uM
[51] = molecular target: Mitogen-activated protein kinase 3 (Homo sapiens) (UniProt P27361); assay: Inhibition of ERK1 at 10 uM
[52] = molecular target: Serine/threonine-protein kinase Nek2 (Homo sapiens) (UniProt P51955); assay: Inhibition of NEK2 at 10 uM
[53] = molecular target: Proto-oncogene tyrosine-protein kinase Src (Homo sapiens) (UniProt P12931); assay: Inhibition of Src at 10 uM
[54] = molecular target: Tyrosine-protein kinase HCK (Homo sapiens) (UniProt P08631); assay: Inhibition of Hck at 10 uM
[55] = molecular target: Insulin-like growth factor 1 receptor (Homo sapiens) (UniProt P08069); assay: Inhibition of IGF1R at 10 uM
[56] = molecular target: Fibroblast growth factor receptor 4 (Homo sapiens) (UniProt P22455); assay: Inhibition of FGFR4 at 10 uM

Chain of Mitogen-activated protein kinase 14 (Q16539 whole entry): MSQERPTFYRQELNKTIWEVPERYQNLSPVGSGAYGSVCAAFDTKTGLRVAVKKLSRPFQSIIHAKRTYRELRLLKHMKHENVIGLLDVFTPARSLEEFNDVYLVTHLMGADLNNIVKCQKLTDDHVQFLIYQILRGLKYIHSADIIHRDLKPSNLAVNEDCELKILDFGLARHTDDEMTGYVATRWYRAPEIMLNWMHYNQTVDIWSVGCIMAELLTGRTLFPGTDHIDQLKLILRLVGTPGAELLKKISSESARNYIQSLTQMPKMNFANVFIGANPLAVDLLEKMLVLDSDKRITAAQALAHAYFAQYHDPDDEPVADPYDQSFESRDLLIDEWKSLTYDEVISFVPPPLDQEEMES
Chain of Protein kinase C beta type (Homo sapiens) (P05771 2-671 limits assumed): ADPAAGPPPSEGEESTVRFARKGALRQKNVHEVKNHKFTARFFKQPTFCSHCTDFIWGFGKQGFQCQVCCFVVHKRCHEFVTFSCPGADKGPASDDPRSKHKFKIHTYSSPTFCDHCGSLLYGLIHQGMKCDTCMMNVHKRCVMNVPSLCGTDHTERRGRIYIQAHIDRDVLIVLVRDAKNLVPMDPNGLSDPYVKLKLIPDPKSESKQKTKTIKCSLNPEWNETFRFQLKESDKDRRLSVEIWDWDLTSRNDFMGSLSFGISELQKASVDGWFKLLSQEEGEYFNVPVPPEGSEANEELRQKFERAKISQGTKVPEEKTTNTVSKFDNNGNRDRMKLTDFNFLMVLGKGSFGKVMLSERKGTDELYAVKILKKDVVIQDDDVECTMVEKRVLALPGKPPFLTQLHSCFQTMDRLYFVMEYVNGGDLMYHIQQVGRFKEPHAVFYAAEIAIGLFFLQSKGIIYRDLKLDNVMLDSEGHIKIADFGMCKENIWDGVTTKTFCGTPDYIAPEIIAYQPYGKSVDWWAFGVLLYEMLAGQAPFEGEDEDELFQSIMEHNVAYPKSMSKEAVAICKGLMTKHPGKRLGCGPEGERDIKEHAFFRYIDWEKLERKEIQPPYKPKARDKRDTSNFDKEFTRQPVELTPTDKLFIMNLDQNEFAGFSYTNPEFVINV
Chain of Tyrosine-protein kinase Lyn (Homo sapiens) (P07948 2-512 limits assumed): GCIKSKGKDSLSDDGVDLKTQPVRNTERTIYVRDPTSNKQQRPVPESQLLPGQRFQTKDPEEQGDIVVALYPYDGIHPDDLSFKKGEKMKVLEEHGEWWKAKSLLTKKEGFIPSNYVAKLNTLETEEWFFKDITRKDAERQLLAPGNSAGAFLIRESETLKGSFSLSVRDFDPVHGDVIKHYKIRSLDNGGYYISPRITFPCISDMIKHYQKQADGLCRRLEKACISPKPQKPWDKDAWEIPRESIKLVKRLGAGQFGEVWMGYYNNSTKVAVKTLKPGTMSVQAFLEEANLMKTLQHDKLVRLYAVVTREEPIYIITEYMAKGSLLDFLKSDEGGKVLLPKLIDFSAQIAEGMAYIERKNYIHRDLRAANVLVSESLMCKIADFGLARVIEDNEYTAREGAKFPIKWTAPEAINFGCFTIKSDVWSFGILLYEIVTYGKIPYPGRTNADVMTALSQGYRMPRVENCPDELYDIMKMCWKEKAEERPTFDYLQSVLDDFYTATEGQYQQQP
Chain of RAC-gamma serine/threonine-protein kinase (Homo sapiens) (Q9Y243 whole entry): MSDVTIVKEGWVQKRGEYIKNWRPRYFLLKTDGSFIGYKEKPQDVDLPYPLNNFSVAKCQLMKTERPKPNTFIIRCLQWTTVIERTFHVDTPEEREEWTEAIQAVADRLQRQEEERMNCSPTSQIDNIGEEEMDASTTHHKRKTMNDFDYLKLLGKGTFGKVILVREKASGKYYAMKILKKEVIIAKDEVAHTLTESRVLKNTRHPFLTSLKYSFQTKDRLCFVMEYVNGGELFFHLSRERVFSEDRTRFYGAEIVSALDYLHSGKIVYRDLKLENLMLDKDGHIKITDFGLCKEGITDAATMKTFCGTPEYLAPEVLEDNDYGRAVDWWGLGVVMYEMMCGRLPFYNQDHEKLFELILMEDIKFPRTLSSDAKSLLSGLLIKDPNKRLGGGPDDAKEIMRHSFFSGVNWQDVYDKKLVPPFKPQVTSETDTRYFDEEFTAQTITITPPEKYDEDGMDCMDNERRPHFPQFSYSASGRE
Chain of Glycogen synthase kinase-3 beta (Homo sapiens) (P49841 whole entry, looked up): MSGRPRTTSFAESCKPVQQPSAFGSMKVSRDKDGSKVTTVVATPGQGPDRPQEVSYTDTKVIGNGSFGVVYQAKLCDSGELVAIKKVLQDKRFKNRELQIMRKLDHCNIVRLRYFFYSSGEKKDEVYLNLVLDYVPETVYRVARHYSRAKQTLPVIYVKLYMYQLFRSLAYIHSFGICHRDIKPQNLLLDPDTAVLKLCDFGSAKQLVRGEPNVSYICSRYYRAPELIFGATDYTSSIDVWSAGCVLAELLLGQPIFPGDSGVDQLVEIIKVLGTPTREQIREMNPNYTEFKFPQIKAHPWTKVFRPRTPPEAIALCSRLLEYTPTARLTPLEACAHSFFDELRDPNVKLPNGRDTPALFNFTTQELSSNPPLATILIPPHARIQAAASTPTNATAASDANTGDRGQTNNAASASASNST
Chain of Fibroblast growth factor receptor 1 (Homo sapiens) (P11362 22-822 limits assumed): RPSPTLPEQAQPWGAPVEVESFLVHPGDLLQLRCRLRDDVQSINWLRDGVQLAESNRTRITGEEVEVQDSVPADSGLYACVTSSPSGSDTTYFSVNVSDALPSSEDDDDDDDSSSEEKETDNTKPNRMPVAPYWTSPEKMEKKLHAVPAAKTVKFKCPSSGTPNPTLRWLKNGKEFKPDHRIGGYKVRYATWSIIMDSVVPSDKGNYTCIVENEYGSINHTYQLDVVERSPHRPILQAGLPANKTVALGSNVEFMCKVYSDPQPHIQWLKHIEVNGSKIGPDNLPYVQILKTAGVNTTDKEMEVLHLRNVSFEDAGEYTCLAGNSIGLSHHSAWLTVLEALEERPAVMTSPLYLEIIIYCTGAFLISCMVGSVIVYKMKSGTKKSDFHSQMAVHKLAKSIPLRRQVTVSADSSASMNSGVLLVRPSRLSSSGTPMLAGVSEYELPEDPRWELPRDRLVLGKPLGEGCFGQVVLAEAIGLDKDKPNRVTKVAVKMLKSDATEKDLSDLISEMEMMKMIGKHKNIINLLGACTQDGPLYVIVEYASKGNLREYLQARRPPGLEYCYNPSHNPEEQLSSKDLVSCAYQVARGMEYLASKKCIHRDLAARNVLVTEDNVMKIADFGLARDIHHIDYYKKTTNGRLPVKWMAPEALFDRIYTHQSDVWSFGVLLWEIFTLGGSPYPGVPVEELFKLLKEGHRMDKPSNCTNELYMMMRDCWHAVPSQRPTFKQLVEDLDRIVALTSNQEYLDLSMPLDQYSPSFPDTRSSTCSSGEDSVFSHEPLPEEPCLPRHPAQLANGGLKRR
Chain of Tyrosine-protein kinase Fgr (Homo sapiens) (P09769 2-529 limits assumed): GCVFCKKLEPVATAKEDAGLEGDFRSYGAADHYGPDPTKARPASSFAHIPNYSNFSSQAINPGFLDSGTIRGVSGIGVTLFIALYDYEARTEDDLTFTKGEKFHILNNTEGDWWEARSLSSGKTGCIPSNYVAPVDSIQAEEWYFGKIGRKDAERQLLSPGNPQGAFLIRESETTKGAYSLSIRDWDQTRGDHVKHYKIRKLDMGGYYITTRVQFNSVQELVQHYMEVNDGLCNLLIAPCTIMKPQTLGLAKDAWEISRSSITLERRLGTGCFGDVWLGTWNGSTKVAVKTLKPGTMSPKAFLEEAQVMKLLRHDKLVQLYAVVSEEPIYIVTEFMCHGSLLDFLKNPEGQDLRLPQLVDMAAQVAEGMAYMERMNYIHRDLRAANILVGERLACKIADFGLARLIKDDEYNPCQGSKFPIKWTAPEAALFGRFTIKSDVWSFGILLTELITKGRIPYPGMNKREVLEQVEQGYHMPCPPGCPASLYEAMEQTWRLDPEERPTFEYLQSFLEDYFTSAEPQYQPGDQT
Chain of Megakaryocyte-associated tyrosine-protein kinase (Homo sapiens) (P42679 whole entry): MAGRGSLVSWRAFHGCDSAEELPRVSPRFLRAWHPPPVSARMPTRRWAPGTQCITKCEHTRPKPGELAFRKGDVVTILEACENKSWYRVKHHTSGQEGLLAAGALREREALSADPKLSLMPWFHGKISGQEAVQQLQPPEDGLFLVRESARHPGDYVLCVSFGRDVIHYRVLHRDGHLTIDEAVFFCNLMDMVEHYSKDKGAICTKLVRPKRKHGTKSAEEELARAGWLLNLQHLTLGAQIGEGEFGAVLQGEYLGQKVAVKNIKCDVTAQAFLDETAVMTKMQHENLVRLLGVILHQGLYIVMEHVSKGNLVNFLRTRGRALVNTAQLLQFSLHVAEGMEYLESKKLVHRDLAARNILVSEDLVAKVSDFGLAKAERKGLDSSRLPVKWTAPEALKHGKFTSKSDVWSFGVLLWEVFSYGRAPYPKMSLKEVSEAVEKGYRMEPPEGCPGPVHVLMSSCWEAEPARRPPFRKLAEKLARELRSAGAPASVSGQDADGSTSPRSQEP
Chain of Casein kinase II subunit alpha (Homo sapiens) (P68400 whole entry, looked up): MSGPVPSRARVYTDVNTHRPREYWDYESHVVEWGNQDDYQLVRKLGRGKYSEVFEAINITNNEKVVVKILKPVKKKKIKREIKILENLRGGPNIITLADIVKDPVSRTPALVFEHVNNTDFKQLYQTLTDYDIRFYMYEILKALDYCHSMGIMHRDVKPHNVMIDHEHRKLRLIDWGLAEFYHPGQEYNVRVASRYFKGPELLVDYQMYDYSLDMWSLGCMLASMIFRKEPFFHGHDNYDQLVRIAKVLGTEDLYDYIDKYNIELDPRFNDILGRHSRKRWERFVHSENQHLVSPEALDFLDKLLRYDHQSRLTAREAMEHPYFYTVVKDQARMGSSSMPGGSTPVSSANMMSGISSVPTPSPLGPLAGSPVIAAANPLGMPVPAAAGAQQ

- IC50 [1]: 5.5 nM
Structure (SMILES): CC[C@H](C)Nc1nc2ccc(-c3c(-c4ccccc4F)n[nH]c3N)cc2s1
- IC50 (PBMC): 77 nM

- IC50 [1]: 3.7 nM
Structure (SMILES): CC(C)Nc1nc2ccc(-c3c(-c4ccccc4F)n[nH]c3N)cc2s1
- IC50 (PBMC): 51 nM

- IC50 [1]: 33 nM
Structure (SMILES): Cc1cccc(-n2nccc2-c2ccc3nc(NC(C)C)sc3c2)c1
- IC50 (PBMC): 171 nM

- IC50 [1]: 175 nM
Structure (SMILES): CC(C)Nc1nc2ccc(-c3ccnn3-c3ccccc3Cl)cc2s1

- inhibition [2]: < 20%
- inhibition [3]: < 20%
- inhibition [4]: < 20%
- inhibition [5]: < 20%
- inhibition [6]: < 20%
- inhibition [7]: < 20%
- inhibition [8]: < 20%
- inhibition [9]: < 20%
- inhibition [10]: < 20%
- AUC [11]: 2.27 µM·h
- inhibition [12]: < 20%
- inhibition [13]: < 20%
- inhibition [14]: < 20%
- inhibition [15]: 54%
- bioavailability [16]: 24%
- inhibition [17]: < 20%
- inhibition [18]: < 20%
- inhibition [19]: < 20%
- clearance [20]: 23.3 mL/min/kg
- inhibition [21]: < 20%
- inhibition [22]: < 20%
- inhibition [23]: < 20%
- inhibition [24]: < 20%
- inhibition [25]: < 20%
- inhibition [26]: 65%
- inhibition [27]: < 20%
- inhibition [28]: < 20%
- inhibition [29]: < 20%
- inhibition [30]: < 20%
- inhibition [31]: < 20%
- inhibition [32]: < 20%
- inhibition [33]: < 20%
- inhibition [34]: < 20%
- inhibition [35]: < 20%
- inhibition [36]: < 20%
- inhibition [37]: < 20%
- inhibition [38]: < 20%
- inhibition [39]: < 20%
- inhibition [40]: < 20%
- inhibition [41]: < 20%
- inhibition [42]: < 20%
- inhibition [43]: 68%
- inhibition [44]: < 20%
- half-life [45]: 1.7 h
- inhibition [46]: < 20%
- inhibition [47]: < 20%
- inhibition [48]: < 20%
- inhibition [49]: < 20%
- inhibition [50]: < 20%
- inhibition [51]: < 20%
- inhibition [52]: < 20%
- inhibition [53]: < 20%
- inhibition [54]: < 20%
- inhibition [55]: < 20%
- inhibition [56]: < 20%
- IC50 [1]: 3.2 nM
Structure (SMILES): CC[C@@H](C)Nc1nc2ccc(-c3c(-c4ccccc4F)n[nH]c3N)cc2s1
- IC50 (PBMC): 39 nM

- IC50 [1]: 17 nM
Structure (SMILES): CC[C@@H](C)Nc1nc2ccc(-c3c(-c4ccccc4F)nn(CC)c3N)cc2s1
- IC50 (PBMC): > 250 nM

- IC50 [1]: 33 nM
Structure (SMILES): CC(C)Nc1nc2ccc(-c3ccnn3-c3cccc(F)c3)cc2s1
- IC50 (PBMC): 171 nM

Structure (SMILES): CC(C)Nc1nc2ccc(-c3ocnc3-c3ccccc3F)cc2s1
- IC50 (PBMC): 40 nM

- IC50 [1]: 6.5 nM
Structure (SMILES): CC[C@@H](C)Nc1nc2ccc(-c3ocnc3-c3ccccc3F)cc2s1
- IC50 (PBMC): 27 nM

- IC50 [1]: 12 nM
Structure (SMILES): CCNc1nc2ccc(-c3ocnc3-c3ccccc3F)cc2s1
- IC50 (PBMC): 167 nM

- IC50 [1]: > 1000 nM
Structure (SMILES): CC(C)Nc1nc2ccc(-c3ccnn3-c3ccc(Cl)cc3)cc2s1

- IC50 [1]: 72 nM
Structure (SMILES): CC(C)Nc1nc2ccc(-c3ccnn3-c3cccc(Cl)c3)cc2s1
- IC50 (PBMC): 232 nM

- IC50 [1]: 48 nM
Structure (SMILES): CC(C)Nc1nc2ccc(-c3ccnn3-c3ccc(F)cc3)cc2s1
- IC50 (PBMC): > 250 nM

- IC50 [1]: 146 nM
Structure (SMILES): Cc1ccccc1-n1nccc1-c1ccc2nc(NC(C)C)sc2c1

- IC50 [1]: 20 nM
Structure (SMILES): CC(C)Nc1nc2ccc(-c3ccnn3-c3ccccc3F)cc2s1
- IC50 (PBMC): 249 nM

- IC50 [1]: 21 nM
Structure (SMILES): CC(C)Nc1nc2ccc(-c3ccnn3-c3ccccc3)cc2s1
- IC50 (PBMC): 213 nM

- IC50 [1]: 7.1 nM
Structure (SMILES): CC(C)Nc1nc2ccc(-c3[nH]cnc3-c3ccccc3)cc2s1
- IC50 (PBMC): 107 nM

- IC50 [1]: > 1000 nM
Structure (SMILES): Cc1ccc(-n2nccc2-c2ccc3nc(NC(C)C)sc3c2)cc1

- IC50 [1]: 10 nM
Structure (SMILES): CC[C@H](C)Nc1nc2ccc(-c3ocnc3-c3ccccc3F)cc2s1
- IC50 (PBMC): 30 nM

- IC50 [1]: 47 nM
Structure (SMILES): Fc1ccccc1-c1ncoc1-c1ccc2ncsc2c1
- IC50 (PBMC): > 250 nM

- IC50 [1]: 21 nM
Structure (SMILES): CC(C)Nc1nc2ccc(-c3ocnc3-c3ccccc3)cc2s1
- IC50 (PBMC): 96 nM

- IC50 [1]: 3.3 nM
Structure (SMILES): CC(C)Nc1nc2ccc(-c3[nH]cnc3-c3ccccc3F)cc2s1
- IC50 (PBMC): 35 nM

- IC50 [1]: 2.7 nM
Structure (SMILES): CC[C@H](C)Nc1nc2ccc(-c3[nH]cnc3-c3ccccc3F)cc2s1
- IC50 (PBMC): 20 nM

- IC50 [1]: 11 nM
Structure (SMILES): CC[C@@H](C)Nc1nc2ccc(-c3c(-c4ccccc4F)nn(C)c3N)cc2s1
- IC50 (PBMC): 118 nM

- IC50 [1]: 1.6 nM
Structure (SMILES): CC[C@@H](C)Nc1nc2ccc(-c3[nH]cnc3-c3ccccc3F)cc2s1
- IC50 (PBMC): 13 nM

- IC50 [1]: 16 nM
Structure (SMILES): Nc1nc2ccc(-c3ocnc3-c3ccccc3F)cc2s1
- IC50 (PBMC): 247 nM
